Test results published in patent publication US9321756B2, “Azole compounds as PIM inhibitors” (priority 2011, dated 2016).
Where two headings read alike, the source gives them in different places.

Columns and labels:
[1] = test system: Pim-2 stably transfected U2OS human osteogenic sarcoma line; test: Pim cell assay U2OS (phospho-BAD normalized against total BAD), Pim-2 transfected; assay type: cell-based; conditions: Homo sapiens, read-out: U2OS Pim2_Cell_IC50
[2] = biological target: full length recombinant Pim-1 (Homo sapiens (Human), UniProt P11309); test: Pim enzyme assay (HTRF, phosphorylation of biotinylated-BAD (S112) peptide), Pim-1; assay type: biochemical
[3] = biological target: full length recombinant Pim-3 (Homo sapiens (Human), UniProt Q86V86); test: Pim enzyme assay (HTRF, phosphorylation of biotinylated-BAD (S112) peptide), Pim-3; assay type: biochemical; conditions: read-out: Pim3 IC50
How it was run: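 IC50 values were fitted with a 4-parameter logistic model to percent-of-control HTRF signal (Eu anti-phospho-BAD S112 antibody/streptavidin-APC). Reactions used full-length Pim-3 and biotin-BAD (S112) peptide, ran 1 h 30 min at RT (22 °C) in Hepes pH 7.0 buffer with BSA and DTT, and were stopped by 3 mM EDTA.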

[4] = test system: Pim-1 stably transfected U2OS human osteogenic sarcoma line; test: Pim cell assay U2OS (phospho-BAD normalized against total BAD), Pim-1 transfected; assay type: cell-based; conditions: Homo sapiens, U2OS
[5] = biological target: full length recombinant Pim-2 (Homo sapiens (Human), UniProt Q9P1W9); test: Pim enzyme assay (HTRF, phosphorylation of biotinylated-BAD (S112) peptide), Pim-2; assay type: biochemical; conditions: read-out: Pim2_IC50
[6] = Pim-1 enzyme assay, read-out: Pim_1_IC50
[7] = read-out: U2OS Pim1_Cell_IC50, U2OS cells, Pim-1 transfected

Chain of full length recombinant Pim-1 (P11309 whole entry): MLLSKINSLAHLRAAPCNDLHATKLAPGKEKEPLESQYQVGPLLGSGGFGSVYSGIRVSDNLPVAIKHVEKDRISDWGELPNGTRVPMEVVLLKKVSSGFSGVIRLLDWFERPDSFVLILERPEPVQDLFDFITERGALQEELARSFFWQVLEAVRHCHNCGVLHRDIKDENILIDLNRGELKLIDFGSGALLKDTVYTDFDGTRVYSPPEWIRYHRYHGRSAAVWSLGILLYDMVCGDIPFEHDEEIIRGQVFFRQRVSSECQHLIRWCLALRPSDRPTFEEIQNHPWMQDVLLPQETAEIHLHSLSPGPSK
Chain of full length recombinant Pim-2 (Q9P1W9 whole entry): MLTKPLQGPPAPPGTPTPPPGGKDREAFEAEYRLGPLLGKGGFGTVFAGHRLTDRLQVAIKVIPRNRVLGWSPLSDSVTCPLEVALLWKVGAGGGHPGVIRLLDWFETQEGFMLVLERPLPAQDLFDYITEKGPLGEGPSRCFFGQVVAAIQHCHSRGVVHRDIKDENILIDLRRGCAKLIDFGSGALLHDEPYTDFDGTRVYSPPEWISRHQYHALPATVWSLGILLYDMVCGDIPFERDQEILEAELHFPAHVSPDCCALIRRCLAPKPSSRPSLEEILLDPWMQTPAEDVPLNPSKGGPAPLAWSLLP

Row | SMILES | IC50 [2, 6] [nM] | IC50 ([3]; Pim-3 enzyme assay) [nM] | IC50 ([5]; Pim-2 enzyme assay) [nM] | IC50 [2] [nM] | IC50 ([1]; U2OS cells, Pim-2 transfected) [nM] | IC50 [4, 7] [nM] | IC50 ([4]; read-out: U2OS Pim1_Cell_IC50) [nM] | IC50 ([1]; U2OS) [nM] | IC50 [3] [nM] | IC50 [5] [nM]
1 | CC(C)Oc1ccc(F)c(-c2c[nH]c3ccc(-c4nnc(N)o4)cc23)c1 [Example 83, 5-(3-(2-fluoro-5-(1-methylethoxy)phenyl)-1H-indol-5-yl)-1,3,4-oxadiazol-2-amine] | 59.3 | 36.2 | 193 | – | 18500 | 725 | – | – | – | –
2 | CNc1nnc(-c2ccc3[nH]cc(-c4nccc(N5CCOCC5)n4)c3c2)s1 [Example 134, N-methyl-5-(3-(4-(4-morpholinyl)-2-pyrimidinyl)-1H-indol-5-yl)-1,3,4-thiadiazol-2-amine] | 38 | 12.3 | 16.3 | – | 6110 | 1440 | – | – | – | –
3 | c1cc2[nH]cc(-c3cncc(C4CC4)n3)c2cc1-c1nnc(NC2CC2)o1 [Example 49, N-cyclopropyl-5-(3-(6-cyclopropylpyrazin-2-yl)-1H-indol-5-yl)-1,3,4-oxadiazol-2-amine] | 3.43 | 1.82 | 7.64 | – | 2680 | – | 83.4 | – | – | –
4 | Nc1nnc(-c2ccc3[nH]cc(-c4cncc(-c5ccccc5)n4)c3c2)o1 [Example 115, 5-(3-(6-phenyl-2-pyrazinyl)-1H-indol-5-yl)-1,3,4-oxadiazol-2-amine] | 9.23 | 5.36 | 14 | – | > 31600 | – | 105 | – | – | –
5 | CC1CCCN1c1ccnc(-c2c[nH]c3ccc(-c4nnc(N)o4)cc23)n1 (stereo not shown) [Example 97, 5-(3-(4-(2-methyl-1-pyrrolidinyl)-2-pyrimidinyl)-1H-indol-5-yl)-1,3,4-oxadiazol-2-amine] | 6.42 | 1.22 | 1.7 | – | 315 | – | 100 | – | – | –
6 | CC(C)Oc1cccc(-c2c[nH]c3ccc(-c4nnc(N)o4)cc23)n1 [Example 87, 5-(3-(6-(1-methylethoxy)-2-pyridinyl)-1H-indol-5-yl)-1,3,4-oxadiazol-2-amine] | 4.15 | 1.11 | 5.46 | – | 823 | – | 45.1 | – | – | –
7 | CNc1nnc(-c2ccc3[nH]cc(-c4cncc(N5CCCCC5)n4)c3c2)s1 [Example 227, N-methyl-5-(3-(6-(1-piperidinyl)-2-pyrazinyl)-1H-indol-5-yl)-1,3,4-thiadiazol-2-amine] | 5.07 | 1.42 | 41 | – | 9950 | – | 121 | – | – | –
8 | Nc1nnc(-c2ccc3[nH]cc(-c4cccc(F)c4F)c3c2)o1 [Example 78, 5-(3-(2,3-difluorophenyl)-1H-indol-5-yl)-1,3,4-oxadiazol-2-amine] | 103 | 54.3 | 164 | – | 18700 | – | 1110 | – | – | –
9 | c1cc(-c2c[nH]c3ccc(-c4nncs4)cc23)nc(N2CCOCC2)c1 [Example 28, 4-(6-(5-(1,3,4-thiadiazol-2-yl)-1H-indol-3-yl)pyridin-2-yl)morpholine] | 40.7 | 27 | 157 | – | > 31600 | – | 1070 | – | – | –
10 | CC(C)Nc1ccnc(-c2c[nH]c3ccc(-c4nnc(N)o4)cc23)n1 [Example 103, 2-(5-(5-amino-1,3,4-oxadiazol-2-yl)-1H-indol-3-yl)-N-(1-methylethyl)-4-pyrimidinamine] | 6.9 | 1.67 | 2.24 | – | 1220 | – | 739 | – | – | –
11 | CC1CCCCN1c1ccnc(-c2c[nH]c3ccc(-c4nnc(N)o4)cc23)n1 (stereo not shown) [Example 3, 5-(3-(4-(2-methylpiperidin-1-yl)pyrimidin-2-yl)-1H-indol-5-yl)-1,3,4-oxadiazol-2-amine] | 5.95 | 0.974 | 2.19 | – | 235 | – | 54.6 | – | – | –
12 | CC(C)Oc1cccc(-c2c[nH]c3ccc(-c4nnc(N5CC[C@@H](N)C5)s4)cc23)n1 [Example 33, (R)-1-(5-(3-(6-Isopropoxypyridin-2-yl)-1H-indol-5-yl)-1,3,4-thiadiazol-2-yl)pyrrolidin-3-amine 2,2,2-trifluoroacetate] | 8.84 | – | – | – | – | 328 | – | 19500 | 1.32 | 16.7
13 | Cn1cc(-c2cncc(-c3c[nH]c4ccc(-c5nnc(N)o5)cc34)n2)cn1 [Example 121, 5-(3-(6-(1-methyl-1H-pyrazol-4-yl)-2-pyrazinyl)-1H-indol-5-yl)-1,3,4-oxadiazol-2-amine] | 19 | 5.54 | 34.6 | – | > 31600 | – | 3140 | – | – | –
14 | CS(=O)(=O)c1nnc(-c2ccc3[nH]cc(-c4cccc(N5CCOCC5)n4)c3c2)s1 [Example 215, 5-(5-(methylsulfonyl)-1,3,4-thiadiazol-2-yl)-3-(6-(4-morpholinyl)-2-pyridinyl)-1H-indole] | 208 | 168 | 8780 | – | > 31600 | – | > 31600 | – | – | –
15 | CC1CCCCN1c1cncc(-c2c[nH]c3ccc(-c4nnc(N)s4)cc23)n1 (stereo not shown) [Example 153, 5-(3-(6-(2-methyl-1-piperidinyl)-2-pyrazinyl)-1H-indol-5-yl)-1,3,4-thiadiazol-2-amine] | – | 1.7 | 9.74 | 1.77 | 1660 | – | 51.9 | – | – | –

More lines, main results first:

Row | IC50 [2, 6] [nM] | IC50 ([3]; Pim-3 enzyme assay) [nM] | IC50 ([5]; Pim-2 enzyme assay) [nM] | IC50 [2] [nM] | SMILES | IC50 ([1]; U2OS cells, Pim-2 transfected) [nM] | IC50 [4, 7] [nM] | IC50 ([4]; read-out: U2OS Pim1_Cell_IC50) [nM] | IC50 ([1]; U2OS) [nM] | IC50 [3] [nM] | IC50 [5] [nM]
16 | 2.51 | 2.79 | 10.9 | – | Nc1nnc(-c2ccc3[nH]cc(-c4cncc(N5CCCCC5)n4)c3c2)s1 [Example 198, 5-(3-(6-(1-piperidinyl)-2-pyrazinyl)-1H-indol-5-yl)-1,3,4-thiadiazol-2-amine] | 1720 | 36.9 | – | – | – | –
17 | 12.7 | 8.54 | 49.4 | – | CC1CCN(c2cncc(-c3c[nH]c4ccc(-c5nnc(N)s5)cc34)n2)CC1 [Example 162, 5-(3-(6-(4-methyl-1-piperidinyl)-2-pyrazinyl)-1H-indol-5-yl)-1,3,4-thiadiazol-2-amine] | 5680 | – | 214 | – | – | –
18 | 1.4 | 0.435 | 1.39 | – | CC(C)Nc1nnc(-c2ccc3[nH]cc(-c4nccc(C5CC5)n4)c3c2)o1 [Example 264, 5-(3-(4-cyclopropyl-2-pyrimidinyl)-1H-indol-5-yl)-N-(1-methylethyl)-1,3,4-oxadiazol-2-amine] | 238 | – | 25.8 | – | – | –
19 | – | 9.89 | 137 | 38.2 | CNc1nnc(-c2ccc3[nH]cc(-c4cncc(N(C)C)n4)c3c2)s1 [Example 231, N,N-dimethyl-6-(5-(5-(methylamino)-1,3,4-thiadiazol-2-yl)-1H-indol-3-yl)-2-pyrazinamine] | – | – | 377 | > 31600 | – | –
20 | 2 | 1.45 | 20 | – | CCN(CC)c1cncc(-c2c[nH]c3ccc(-c4nnc(N)s4)cc23)n1 [Example 154, 6-(5-(5-amino-1,3,4-thiadiazol-2-yl)-1H-indol-3-yl)-N,N-diethyl-2-pyrazinamine] | 2300 | 43.4 | – | – | – | –
21 | 45.8 | 30.5 | 91.2 | – | Nc1nnc(-c2ccc3[nH]cc(-c4csc(-n5ccccc5=O)n4)c3c2)s1 [Example 177, 1-(4-(5-(5-amino-1,3,4-thiadiazol-2-yl)-1H-indol-3-yl)-1,3-thiazol-2-yl)-2(1H)-pyridinone] | > 31600 | – | 538 | – | – | –
22 | 5.59 | 4.38 | 12.3 | – | Nc1nnc(-c2ccc3[nH]cc(-c4cncc(N5CCOCC5)n4)c3c2)s1 [Example 156, 5-(3-(6-(4-morpholinyl)-2-pyrazinyl)-1H-indol-5-yl)-1,3,4-thiadiazol-2-amine] | 1900 | 163 | – | – | – | –
23 | 19 | 5.87 | 64.4 | – | C[C@H]1CCCCN1c1cccc(-c2c[nH]c3ccc(-c4nnc(N)s4)cc23)n1 (stereo in doubt) [Example 167, 5-(3-(6-(2-methyl-1-piperidinyl)-2-pyridinyl)-1H-indol-5-yl)-1,3,4-thiadiazol-2-amine] | 25000 | – | 421 | – | – | –
24 | 26.4 | 11.8 | 23.8 | – | Cc1nccn1-c1cccc(-c2c[nH]c3ccc(-c4nnc(N)s4)cc23)n1 [Example 169, 5-(3-(6-(2-methyl-1H-imidazol-1-yl)-2-pyridinyl)-1H-indol-5-yl)-1,3,4-thiadiazol-2-amine] | > 31600 | 1810 | – | – | – | –
25 | 4.19 | 7.11 | 21.5 | – | c1cc2[nH]cc(-c3cncc(C4CC4)n3)c2cc1-c1nnc(N2CCNCC2)o1 [Example 246, 3-(6-cyclopropyl-2-pyrazinyl)-5-(5-(1-piperazinyl)-1,3,4-oxadiazol-2-yl)-1H-indole] | > 31600 | – | 450 | – | – | –
26 | 10.5 | 10.7 | 24.6 | – | Nc1nnc(-c2ccc3[nH]cc(-c4cncc(OC5CCCC5)n4)c3c2)s1 [Example 160, 5-(3-(6-(cyclopentyloxy)-2-pyrazinyl)-1H-indol-5-yl)-1,3,4-thiadiazol-2-amine] | 6540 | 176 | – | – | – | –
